According to PubChem BioAssay (NCI):
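96-well plates; 48 h exposure; 5 concentrations. Endpoints by linear interpolation between flanking doses. Not reached: highest tested concentration assigned. The concentration for 50% growth inhibition is given as GI50. TGI denotes the concentration required for complete inhibition of growth.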

Legend:
Assay in all cases: NCI-60 cell line screen, 48 h
HCT-116 colon = test system: HCT-116 colon
OVCAR-8 ovarian = test system: OVCAR-8 ovarian
786-0 renal = test system: 786-0 renal
BT-549 breast = test system: BT-549 breast
UACC-257 melanoma = test system: UACC-257 melanoma
SF-268 CNS = test system: SF-268 CNS
IGROV1 ovarian = test system: IGROV1 ovarian
KM12 colon = test system: KM12 colon
MDA-N = test system: MDA-N
LOX IMVI melanoma = test system: LOX IMVI melanoma
OVCAR-5 ovarian = test system: OVCAR-5 ovarian

| SMILES | TGI (HCT-116 colon) | TGI (OVCAR-8 ovarian) | TGI (786-0 renal) | TGI (BT-549 breast) | TGI (UACC-257 melanoma) | TGI (SF-268 CNS) | TGI (IGROV1 ovarian) | TGI (KM12 colon) | TGI (MDA-N) | TGI (LOX IMVI melanoma) | TGI (OVCAR-5 ovarian) | GI50 (HCT-116 colon) | GI50 (OVCAR-8 ovarian) | GI50 (BT-549 breast) | GI50 (UACC-257 melanoma) | GI50 (SF-268 CNS) | GI50 (IGROV1 ovarian) | GI50 (KM12 colon) | GI50 (LOX IMVI melanoma) | GI50 (OVCAR-5 ovarian) |
| --- | --- | --- | --- | --- | --- | --- | --- | --- | --- | --- | --- | --- | --- | --- | --- | --- | --- | --- | --- | --- |
| Cc1ccc(C)c(/C(=N\N=C(N)N)C2CC2)c1 | 82.7 µM | > 100 µM | > 100 µM | 95.3 µM | > 100 µM | > 100 µM | > 100 µM | > 100 µM | 59.8 µM | > 100 µM | > 100 µM | – | – | – | – | – | – | – | – | – |
| c1ccc2c[n+](CCCCCCCCCC[n+]3ccc4ccccc4c3)ccc2c1 | > 10 µM | > 10 µM | > 10 µM | > 10 µM | > 10 µM | > 10 µM | > 10 µM | > 10 µM | > 10 µM | > 10 µM | > 10 µM | – | – | – | – | – | – | – | – | – |
| CCN(CC)Cc1ccc2cccnc2c1O | 41.8 µM | 7.01 µM | – | > 100 µM | > 100 µM | > 100 µM | 18.4 µM | – | 49.7 µM | > 100 µM | 45.5 µM | – | – | – | – | – | – | – | – | – |
| NCS(=O)(=O)O | > 100 µM | > 100 µM | > 100 µM | > 100 µM | > 100 µM | > 100 µM | > 100 µM | > 100 µM | > 100 µM | > 100 µM | > 100 µM | – | – | – | – | – | – | – | – | – |
| Cc1c2ccnc(-c3ccccc3)c2cc2c1[nH]c1ccccc12 | 4.61 µM | 7 µM | – | – | 6.26 µM | 32.9 µM | 21.4 µM | 26 µM | – | 17.6 µM | 13.8 µM | – | – | – | – | – | – | – | – | – |
| Cc1ncc(CO)c(CN)c1O | > 100 µM | > 100 µM | > 100 µM | > 100 µM | > 100 µM | > 100 µM | > 100 µM | > 100 µM | > 100 µM | > 100 µM | > 100 µM | – | – | – | – | – | – | – | – | – |
| COc1ccc(CNc2nc(NCc3ccc(OC)cc3)nc(NC(C)C)n2)cc1 | 12.4 µM | 33.6 µM | 32.9 µM | – | 39.8 µM | 50 µM | > 100 µM | 76.3 µM | 10.3 µM | 30.9 µM | 81.9 µM | – | – | – | – | – | – | – | – | – |
| O=C(CC1(O)C(=O)Nc2ccc(Br)cc21)c1ccc(C(=O)NCC2CCC3(CC2)OOC2(CCCCC2)OO3)cc1 (stereo unspecified) | 30 µM | > 100 µM | – | 32.7 µM | 29 µM | 36.5 µM | 11.6 µM | 31.2 µM | – | 29 µM | 63.8 µM | 3.09 µM | 4.57 µM | 7.28 µM | 10.6 µM | 6.16 µM | 1.52 µM | 3.08 µM | 1.95 µM | 13.8 µM |
| CC[C@H](Nc1nc(N)nc(N)c1Cl)c1nc2cccc(NCc3ccc(C(=O)NO)cc3)c2c(=O)n1-c1ccccc1 | – | 5.05 µM | – | 5.69 µM | 4.92 µM | 3.69 µM | – | 4.62 µM | – | 3.17 µM | 3.36 µM | – | 1.69 µM | 2.13 µM | 1.94 µM | 1.66 µM | – | 2.08 µM | 1.73 µM | 1.61 µM |
| COc1cnc2c(c1)C(=O)c1c-2n(CCCN2CCNCC2)c(=O)c2cc(Cl)ccc12 | – | – | – | – | 4.82 µM | 2.63 µM | – | 2.04 µM | – | – | 3.31 µM | – | – | – | 2.19 µM | 1.07 µM | – | 0.55 µM | – | 1.74 µM |
| CCOC(=O)c1c2c(c(O)c3ccccc3c(O)n(-c3ccc(C)cc3)c1C)C(=O)C=CC2=O | 38.3 µM | 41.3 µM | 33.5 µM | 71.2 µM | 29.3 µM | > 100 µM | > 100 µM | 81.7 µM | – | 38.8 µM | > 100 µM | – | – | – | – | – | – | – | – | – |
